Test results reported in patent publication US9730944B2, “Antiviral activity of novel bicyclic heterocycles” (priority 2010, dated 2017).
In brackets after ≈: the same amount, converted by molar mass. Where two headings read alike, the source gives them in different places.

Key:
HIV-2 strain (ROD) = assay: Inhibition of replication of HIV-2 (ROD strain) in MT-4 cells, MTT assay; type: cell-based; conditions: Human immunodeficiency virus 2, MT4, 120 h, read-out: EC50 (μM) HIV-2 (ROD)
in vitro [1] = conditions: human
poliovirus (PV type 3) = assay: microbe, parasite or virus in culture; type: cell-based; conditions: Enterovirus C, read-out: PV-3 EC50
poliovirus (PV type 1) = assay: microbe, parasite or virus in culture; type: cell-based; conditions: Enterovirus C, read-out: PV-1 EC50
in vitro [2] = conditions: human, PV CC50
HIV-1 strain IIIB = assay: Inhibition of replication of HIV-1 (IIIB strain) in MT-4 cells, MTT assay; type: cell-based; conditions: Human immunodeficiency virus 1, IIIB, MT4, 120 h, read-out: EC50 (μM) HIV-1 (IIIB)
poliovirus (PV type 2) = assay: microbe, parasite or virus in culture; type: cell-based; conditions: Enterovirus C, read-out: PV-2 EC50
in vitro [3] = conditions: African green monkey, PV CC50
[4] = MT-4 cells, MTT assay, five days after infection, 50% protection from cytopathic effect

| SMILES | EC50 (HIV-2 strain (ROD); [4]) [µM] | CC50 (in vitro [1]) [µM] | EC50 (poliovirus (PV type 3); HeLa) [µg/mL] | EC50 (poliovirus (PV type 3); Vero) [µg/mL] | EC50 (poliovirus (PV type 1); HeLa) [µg/mL] | EC50 (poliovirus (PV type 1); Vero) [µg/mL] | CC50 (in vitro [2]) [µg/mL] | EC50 (HIV-1 strain IIIB; [4]) [µM] | EC50 (poliovirus (PV type 2); HeLa) [µg/mL] | EC50 (poliovirus (PV type 2); Vero) [µg/mL] | CC50 (in vitro [3]) [µg/mL] | EC50 (HIV-2 strain (ROD)) [µM] | EC50 (HIV-1 strain IIIB) [µM] |
| --- | --- | --- | --- | --- | --- | --- | --- | --- | --- | --- | --- | --- | --- |
| Cc1nc(N2CCN(C(=O)COc3ccc(Cl)cc3)CC2)c2cc(-c3ccc(F)cc3)sc2n1 [Example 325, 2-(4-chlorophenoxy)-1-(4-(6-(4-fluorophenyl)-2-methylthieno[2,3-d]pyrimidin-4-yl)piperazin-1-yl)ethanone] | > 208 | 208 | > 50 | > 50 | > 50 | > 50 | > 50 | > 208 | ≥ 50 | > 50 | 67.8 (≈ 136 µM) | – | – |
| Cc1cccc(NC(=O)N2CCN(c3nc(N)nc4sc(-c5ccc(F)cc5)cc34)CC2)c1 [Example 359, 4-(2-amino-6-(4-fluorophenyl)thieno[2,3-d]pyrimidin-4-yl)-N-m-tolylpiperazine-1-carboxamide] | 10.4 | 140 | 1.07 (≈ 2.31 µM) | 0.73 (≈ 1.58 µM) | 0.94 (≈ 2.03 µM) | 0.43 (≈ 0.93 µM) | > 50 | 6.18 | 0.41 (≈ 0.886 µM) | 0.21 (≈ 0.454 µM) | > 150 | – | – |
| Nc1nc(N2CCN(C(=O)COc3ccc(Cl)cc3)CC2)c2nc(CCOc3ccc(F)cc3)sc2n1 [Example 48, 1-(4-(5-amino-2-(2-(4-fluorophenoxy)ethyl)thiazolo[5,4-d]pyrimidin-7-yl)piperazin-1-yl)-2-(4-chlorophenoxy)ethanone] | 5.12 | 11.7 | 0.97 (≈ 1.79 µM) | 0.36 (≈ 0.663 µM) | 0.35 (≈ 0.645 µM) | 0.11 (≈ 0.203 µM) | 49.4 (≈ 91 µM) | 0.63 | 0.36 (≈ 0.663 µM) | 0.082 (≈ 0.151 µM) | > 150 | – | – |
| Cc1cccc(NC(=O)N2CCN(c3nc(-c4ccccc4)nc4sc(-c5ccc(F)cc5)cc34)CC2)c1 [Example 360, 4-(6-(4-fluorophenyl)-2-phenylthieno[2,3-d]pyrimidin-4-yl)-N-m-tolylpiperazine-1-carboxamide] | > 239 | > 239 | > 50 | > 50 | > 50 | > 50 | > 50 | > 239 | ≥ 50 | 10.5 (≈ 20.1 µM) | 93.4 (≈ 178 µM) | – | – |
| CCOC(=O)c1nc(N2CCN(C(=O)Nc3cccc(C)c3)CC2)c2cc(-c3ccc(F)cc3)sc2n1 [Example 361, ethyl 6-(4-fluorophenyl)-4-(4-(m-tolylcarbamoyl)piperazin-1-yl)thieno[2,3-d]pyrimidine-2-carboxylate] | – | 156 | > 50 | > 50 | > 50 | > 50 | > 50 | – | ≥ 50 | > 50 | 61.7 (≈ 119 µM) | ≥ 156 | ≥ 156 |
| COCCNC(=O)c1nc(N2CCN(C(=O)COc3ccc(Cl)cc3)CC2)c2cc(-c3ccc(F)cc3)sc2n1 [Example 356, 4-(4-(2-(4-chlorophenoxy)acetyl)piperazin-1-yl)-6-(4-fluorophenyl)-N-(2-methoxyethyl)thieno[2,3-d]pyrimidine-2-carboxamide] | > 155 | > 155 | > 50 | > 50 | > 50 | > 50 | > 50 | > 155 | ≥ 50 | ≥ 50 | 108 (≈ 185 µM) | – | – |
| O=C(COc1ccc(Cl)cc1)N1CCN(c2nc(-c3ccccc3)nc3sc(-c4ccc(F)cc4)cc23)CC1 [Example 352, 2-(4-chlorophenoxy)-1-(4-(6-(4-fluorophenyl)-2-phenylthieno[2,3-d]pyrimidin-4-yl)piperazin-1-yl)ethanone] | > 224 | > 224 | > 50 | > 50 | > 50 | > 50 | > 50 | > 224 | ≥ 50 | > 50 | > 150 | – | – |
| CCOC(=O)c1nc(N2CCN(C(=O)COc3ccc(Cl)cc3)CC2)c2cc(-c3ccc(F)cc3)sc2n1 [Example 353, ethyl 4-(4-(2-(4-chlorophenoxy)acetyl)piperazin-1-yl)-6-(4-fluorophenyl)thieno[2,3-d]pyrimidine-2-carboxylate] | > 68.5 | 68.5 | > 50 | > 50 | > 50 | > 50 | 41.3 (≈ 74.4 µM) | > 68.5 | ≥ 50 | ≥ 50 | > 150 | – | – |
| Cc1nc(N2CCN(C(=O)COc3ccc(Cl)cc3)CC2)c2nc(-c3ccc(F)cc3)oc2n1 [Example 168, 2-(4-chlorophenoxy)-1-(4-(2-(4-fluorophenyl)-5-methyl-oxazolo[5,4-d]pyrimidin-7-yl)piperazin-1-yl)ethanone] | > 50 | > 50 | > 50 | > 50 | > 50 | > 50 | > 50 | > 50 | ≥ 50 | ≥ 50 | 83.3 (≈ 173 µM) | – | – |
| Cc1cccc(NC(=O)N2CCN(c3nc(C(N)=O)nc4sc(-c5ccc(F)cc5)cc34)CC2)c1 [Example 362, 6-(4-fluorophenyl)-4-(4-(m-tolylcarbamoyl)piperazin-1-yl)thieno[2,3-d]pyrimidine-2-carboxamide] | – | 255 | > 50 | > 50 | > 50 | > 50 | > 50 | – | ≥ 50 | > 50 | 128 (≈ 261 µM) | ≥ 255 | ≥ 255 |
| CC(c1ccc(F)cc1)c1nc2c(N3CCN(C(=O)COc4ccc(Cl)cc4)CC3)nc(N)nc2s1 (centres unmarked) [Example 66, 1-(4-(5-amino-2-(1-(4-fluorophenyl)ethyl)thiazolo[5,4-d]pyrimidin-7-yl)piperazin-1-yl)-2-(4-chlorophenoxy)ethanone] | > 50 | > 50 | > 50 | 0.56 (≈ 1.06 µM) | > 50 | 0.29 (≈ 0.55 µM) | > 50 | > 50 | ≥ 50 | 0.11 (≈ 0.209 µM) | 130 (≈ 246 µM) | – | – |
| Nc1nc(N2CCN(C(=O)COc3ccc(Cl)cc3)CC2)c2nc(C(Cc3ccccc3)c3ccc(F)cc3)sc2n1 (centres unmarked) [Example 67, 1-(4-(5-amino-2-(1-(4-fluorophenyl)-2-phenylethyl)thiazolo[5,4-d]pyrimidin-7-yl)piperazin-1-yl)-2-(4-chlorophenoxy)ethanone] | > 50 | > 50 | > 50 | > 50 | > 50 | > 50 | > 50 | > 50 | ≥ 50 | 11.9 (≈ 19.7 µM) | 114 (≈ 189 µM) | – | – |
| Nc1nc(N2CCN(C(=O)COc3ccc(Cl)cc3)CC2)c2nc(CCc3ccc(F)cc3)oc2n1 [Example 172, 1-(4-(5-amino-2-(4-fluorophenethyl)oxazolo[5,4-d]pyrimidin-7-yl)piperazin-1-yl)-2-(4-chlorophenoxy)ethanone] | – | 32 | > 50 | 4.36 (≈ 8.53 µM) | 32 (≈ 62.6 µM) | 1.16 (≈ 2.27 µM) | > 50 | – | 15.6 (≈ 30.6 µM) | 1.11 (≈ 2.17 µM) | 76.2 (≈ 149 µM) | ≥ 32 | 1.82 |
| O=C(COc1ccc(Cl)cc1)N1CCN(c2ncnc3oc(Cc4ccc(F)cc4)nc23)CC1 [Example 170, 2-(4-chlorophenoxy)-1-(4-(2-(4-fluorobenzyl)oxazolo[5,4-d]pyrimidin-7-yl)piperazin-1-yl)ethanone] | > 50 | > 50 | > 50 | > 50 | > 50 | > 50 | > 50 | 4.03 | ≥ 50 | 1.76 (≈ 3.65 µM) | 105 (≈ 218 µM) | – | – |
| Nc1nc(N2CCN(C(=O)COc3ccc(Cl)cc3)CC2)c2nc(Cc3ccc(F)cc3)sc2n1 [Example 46, 1-(4-(5-amino-2-(4-fluorobenzyl)thiazolo[5,4-d]pyrimidin-7-yl)piperazin-1-yl)-2-(4-chlorophenoxy)ethanone] | 1.15 | 164 | 0.11 (≈ 0.214 µM) | > 50 | 0.11 (≈ 0.214 µM) | 0.12 (≈ 0.234 µM) | > 50 | 0.67 | 0.039 (≈ 0.076 µM) | 0.14 (≈ 0.273 µM) | 133 (≈ 259 µM) | – | – |
| NC(=O)c1nc(N2CCN(C(=O)COc3ccc(Cl)cc3)CC2)c2cc(-c3ccc(F)cc3)sc2n1 [Example 355, 4-(4-(2-(4-chlorophenoxy)acetyl)piperazin-1-yl)-6-(4-fluorophenyl)thieno[2,3-d]pyrimidine-2-carboxamide] | > 150 | 150 | > 50 | > 50 | > 50 | > 50 | > 50 | > 150 | ≥ 50 | ≥ 50 | 117 (≈ 222 µM) | – | – |
